Our source for the IC50 values is patent publication US20250177396A1, “POLO-LIKE KINASE 4 (PLK4) INHIBITORS, PHARMACEUTICAL COMPOSITIONS, METHODS OF PREPARATION AND USES THEREOF” (Repare Therapeutics Inc., priority 2022, published 2025).

The assay addresses T1, PLK4 (Homo sapiens, UniProt O00444).
T1 construct: expressed in transfected cells; host or cells: HEK293 T cells (ATCC CRL-3216)
T1 sequence (O00444 1-970): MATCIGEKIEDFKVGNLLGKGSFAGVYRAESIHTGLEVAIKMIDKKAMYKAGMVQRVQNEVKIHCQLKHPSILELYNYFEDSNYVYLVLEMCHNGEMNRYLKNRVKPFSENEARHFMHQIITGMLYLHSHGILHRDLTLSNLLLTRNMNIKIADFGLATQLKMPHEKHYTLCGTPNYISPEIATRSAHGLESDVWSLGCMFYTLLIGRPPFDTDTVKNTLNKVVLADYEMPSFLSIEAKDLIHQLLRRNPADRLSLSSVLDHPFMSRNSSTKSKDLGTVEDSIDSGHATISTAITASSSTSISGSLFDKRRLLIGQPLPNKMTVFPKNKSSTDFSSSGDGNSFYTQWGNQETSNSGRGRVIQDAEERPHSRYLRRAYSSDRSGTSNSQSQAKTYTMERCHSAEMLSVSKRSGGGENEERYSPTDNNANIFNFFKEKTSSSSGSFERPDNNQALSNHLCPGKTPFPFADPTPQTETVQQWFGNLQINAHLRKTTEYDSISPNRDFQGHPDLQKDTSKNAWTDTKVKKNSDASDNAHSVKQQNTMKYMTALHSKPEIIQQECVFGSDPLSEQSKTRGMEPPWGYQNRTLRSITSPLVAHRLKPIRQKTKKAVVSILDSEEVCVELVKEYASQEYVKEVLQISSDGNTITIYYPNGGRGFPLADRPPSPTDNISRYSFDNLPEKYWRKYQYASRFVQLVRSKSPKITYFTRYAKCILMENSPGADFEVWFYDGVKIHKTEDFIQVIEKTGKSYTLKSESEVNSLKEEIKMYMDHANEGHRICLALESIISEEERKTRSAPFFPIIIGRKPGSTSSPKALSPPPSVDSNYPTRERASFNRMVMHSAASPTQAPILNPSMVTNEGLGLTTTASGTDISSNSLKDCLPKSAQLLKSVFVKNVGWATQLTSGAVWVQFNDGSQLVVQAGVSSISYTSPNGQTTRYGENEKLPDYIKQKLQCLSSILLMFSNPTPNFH
Briefly: PLK4 NanoBRET target engagement assay. The format is binding. Particulars: HEK293 T cells transfected with PLK4 NanoLuc fusion vector; K-5 tracer; 2 hrs incubation. In outline: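 HEK293T cells transiently expressing PLK4-NanoLuc, plated at 17000 cells/well with K-5 tracer and compound, incubated 2 h at 37 °C/5% CO2. After substrate/inhibitor mix, 610/450 nm emission ratio ×1000 gave mBRET; IC50 from 4-parameter fit.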
(Bioluminescence resonance energy transfer reports proximity on the nanometre scale.)

Each structure is given as a SMILES string. pIC50: −log10 of the molar value.

In turn, `Cc1cc(Nc2nc(N(C)c3c(F)cc(S(C)(=O)=O)cc3F)nc(N3Cc4cnn(C)c4C3)c2C2CC2)n[nH]1` [Compound 271] gave a pIC50 of 7.22.
To `COCc1nc(-c2nc(N(C)c3c(F)cc(S(C)(=O)=O)cc3F)nc(Nc3cc(C4CC4)[nH]n3)c2C2CC2)cn1C` [Compound 272] belongs 8.52; to `CN(c1nc(Nc2cc(C3CC3)[nH]n2)c(C2CC2)c(-c2cn3c(n2)COCC3)n1)c1c(F)cc(S(C)(=O)=O)cc1F` [Compound 273], 8.70; to `Cc1cc(Nc2nc(N(C)c3c(F)cc(S(C)(=O)=O)cc3F)nc(-c3ncn(C)c3C(=O)N(C)C)c2C2CC2)n[nH]1` [Compound 274], 5.51.
With `COCCn1cc(-c2nc(N(C)c3c(F)cc(S(C)(=O)=O)cc3F)nc(Nc3cc(C4CC4)[nH]n3)c2C2CC2)c(C)n1` [Compound 276], the negative logarithm of the IC50 (pIC50) was 8.40.
For `COCCn1ncc(-c2nc(N(C)c3c(F)cc(S(C)(=O)=O)cc3F)nc(Nc3cc(C4CC4)[nH]n3)c2C2CC2)c1C` [Compound 277] the value was 8.52; for `CN(c1nc(Nc2cc(C(F)(F)F)[nH]n2)c(C2CC2)c(-c2cnn(C)c2)n1)c1c(F)cc(S(C)(=O)=O)cc1F` [Compound 278], 7.22; for `CN(C)C(=O)c1c(-c2nc(N(C)c3c(F)cc(S(C)(=O)=O)cc3F)nc(Nc3cc(C4CC4)[nH]n3)c2C2CC2)cnn1C` [Compound 280], 9.00.
As to `Cc1cc(Nc2nc(N(C)c3c(F)cc(S(C)(=O)=O)cc3F)nc(-c3nn(C)cc3C(N)=O)c2C2CC2)n[nH]1` [Compound 281], the negative-log IC50 (pIC50) is 6.47.
`Cc1cc(Nc2nc(N(C)c3c(F)cc(S(C)(=O)=O)cc3F)nc(N3CCc4ncn(C)c4C3)c2C2CC2)n[nH]1` [Compound 282] had a negative-log IC50 (pIC50) of 8.22.
For `Cc1cc(Nc2nc(N(C)c3c(F)cc(S(C)(=O)=O)cc3F)nc(-c3ncn(C)c3C)c2C2CC2)n[nH]1` [Compound 283] the value was 7.35; for `CN(c1nc(Nc2n[nH]c3c2CCC3)c(C2CC2)c(-c2cnn(C)c2)n1)c1c(F)cc(S(C)(=O)=O)cc1F` [Compound 285], 6.82.
The compound `Cc1cc(Nc2nc(N(C)c3c(F)cc(S(C)(=O)=O)cc3F)nc(-c3cc4[nH]c(=O)ccn4n3)c2C2CC2)n[nH]1` [Compound 286] gave a pIC50 of 7.62.
To `CN(c1nc(Nc2cc(C3CC3)[nH]n2)c(C2CC2)c(-c2cn(C)c(C#N)n2)n1)c1c(F)cc(S(C)(=O)=O)cc1F` [Compound 287, 4-(5-cyclopropyl-6-((5-cyclopropyl-1H-pyrazol-3-yl)amino)-2-((2,6-difluoro-4-(methylsulfonyl)phenyl)(methyl)amino)pyrimidin-4-yl)-1-methyl-1H-imidazole-2-carbonitrile] belongs 8.22; to `Cc1cc(Nc2nc(N(C)c3c(F)cc(S(C)(=O)=O)cc3F)nc(-c3cnn4ccncc34)c2C2CC2)n[nH]1` [Compound 288], 7.66; to `Cc1cc(Nc2nc(N(C)c3c(F)cc(S(C)(=O)=O)cc3F)nc(-c3cnn(C)c3C(=O)O)c2C2CC2)n[nH]1` [Compound 289], 6.18.
To `COc1cc(Nc2nc(N(C)c3c(F)cc(S(C)(=O)=O)cc3F)nc(-c3cnn(C)c3)c2C2CC2)n[nH]1` [Compound 292] belongs 7.62.
For `Cc1cc(Nc2nc(N(C)c3c(F)cc(S(C)(=O)=O)cc3F)nc(-c3cn(C)c(C(=O)N(C)C)n3)c2C2CC2)n[nH]1` [Compound 293] the value was 7.85.
Take `Cc1cc(Nc2nc(N(C)c3c(F)cc(S(C)(=O)=O)cc3F)nc(-c3cnn(C)c3C(C)(C)O)c2C2CC2)n[nH]1` [Compound 294]: the negative logarithm of the IC50 (pIC50) was 8.05.
`CN(c1nc(Nc2cc(C#N)[nH]n2)c(C2CC2)c(-c2cnn(C)c2)n1)c1c(F)cc(S(C)(=O)=O)cc1F` [Compound 295] gave a pIC50 of 7.12.
For `CN(c1nc(Nc2cc(C3CC3)[nH]n2)c(C2CC2)c(-c2cnn(CC(C)(C)O)c2)n1)c1c(F)cc(S(C)(=O)=O)cc1F` [Compound 297] the value was 7.85; for `CN(c1nc(Nc2cc(C3CC3)[nH]n2)c(C2CC2)c(-c2cn(C)cn2)n1)c1cc(F)c(S(C)(=O)=O)cc1F` [Compound 298], 7.96; for `Cc1cc(Nc2nc(N(C)c3c(F)cc(S(C)(=O)=O)cc3F)nc(N3CCO[C@H](C(F)(F)F)C3)c2C2CC2)n[nH]1` [Compound 299], 6.74.
`Cc1cc(Nc2nc(N(C)c3c(F)cc(S(C)(=O)=O)cc3F)nc(N3CCO[C@@H](C(F)(F)F)C3)c2C2CC2)n[nH]1` [Compound 300] gave a negative-log IC50 (pIC50) of 6.82.
For `Cc1cc(Nc2nc(N(C)c3c(F)cc(S(C)(=O)=O)cc3F)nc(-c3cnc4n3CCOC4)c2C2CC2)n[nH]1` [Compound 302] the value was 8.10; for `Cc1cc(Nc2nc(N(C)c3c(F)cc(S(C)(=O)=O)cc3F)nc(-c3cnn(C)c3N3CCCC3=O)c2C2CC2)n[nH]1` [Compound 304], 8.10; for `Cc1cc(Nc2nc(N(C)c3c(F)cc(S(C)(=O)=O)cc3F)nc(-c3cnn(C)c3C(O)C(F)(F)F)c2C2CC2)n[nH]1` (centres unmarked) [Compound 305], 7.80.
For `Cc1cc(Nc2nc(N(C)c3c(F)cc(S(C)(=O)=O)cc3F)nc(-c3cnn(C)c3C(O)(O)C(F)(F)F)c2C2CC2)n[nH]1` [Compound 306], the pIC50 is 7.03.
For `CC(=O)c1c(-c2nc(N(C)c3c(F)cc(S(C)(=O)=O)cc3F)nc(Nc3cc(C)[nH]n3)c2C2CC2)cnn1C` [Compound 307] the value was 7.72; for `Cc1cc(Nc2nc(N(C)c3c(F)cc(S(C)(=O)=O)cc3F)nc(-c3cnn(C)c3CC#N)c2C2CC2)n[nH]1` [Compound 308], 8.70; for `Cc1cc(Nc2nc(N(C)c3c(F)cc(S(C)(=O)=O)cc3F)nc(-c3cnc4ccc(F)cn34)c2C2CC2)n[nH]1` [Compound 310], 7.51.
As to `COC(C)(C)c1c(-c2nc(N(C)c3c(F)cc(S(C)(=O)=O)cc3F)nc(Nc3cc(C)[nH]n3)c2C2CC2)cnn1C` [Compound 311], the pIC50 was 7.85.
To `Cc1cc(Nc2nc(N(C)c3c(F)cc(S(C)(=O)=O)cc3F)nc(-c3cnn(C)c3C(C)O)c2C2CC2)n[nH]1` (centres unmarked) [Compound 312] belongs 7.82.
The compound `Cc1cc(Nc2nc(N(C)c3c(F)cc(S(C)(=O)=O)cc3F)nc(Nc3cc(C)[nH]n3)c2C2CC2)n[nH]1` [Compound 313] had a negative-log IC50 (pIC50) of 7.74.
In the case of `CN(c1nc(Nc2cc(C3CC3)[nH]n2)c(C2CC2)c(-c2cn(C)cn2)n1)c1ccc(S(C)(=O)=O)cc1F` [Compound 315], the negative logarithm of the IC50 (pIC50) is 7.64.
`Cc1cc(Nc2nc(N(C)c3c(F)cc(S(C)(=O)=O)cc3F)nc(-c3cn[nH]c3C3CC3)c2C2CC2)n[nH]1` [Compound 316] showed a pIC50 of 8.30.
`Cc1cc(Nc2nc(N(C)c3c(F)cc(S(C)(=O)=O)cc3F)nc(-c3cn[nH]c3C#N)c2C2CC2)n[nH]1` [Compound 317] had a pIC50 of 7.57.
`Cc1cc(Nc2nc(N(C)c3c(F)cc(S(C)(=O)=O)cc3F)nc(-c3cc(C(=O)N(C)C)n(C)n3)c2C2CC2)n[nH]1` [Compound 319] showed a pIC50 of 8.30.
`Cc1cc(Nc2nc(N(C)c3c(F)cc(S(C)(=O)=O)cc3F)nc(-c3cnn(C)c3N(C)C)c2C2CC2)n[nH]1` [Compound 320] gave a negative-log IC50 (pIC50) of 8.40.
For the compound `Cc1cc(Nc2nc(N(C)c3c(F)cc(S(C)(=O)=O)cc3F)nc(-c3cc(C(N)=O)n(C)n3)c2C2CC2)n[nH]1` [Compound 321], the pIC50 was 7.96.
`Cc1cc(Nc2nc(N(C)c3c(F)cc(S(C)(=O)=O)cc3F)nc(-c3cn(C)c(C4(O)CCC4)n3)c2C2CC2)n[nH]1` [Compound 322] gave a pIC50 of 7.92.
For `Cc1cc(Nc2nc(N(C)c3c(F)cc(S(C)(=O)=O)cc3F)nc(-c3cn(C)c(C(C)(C)O)n3)c2C2CC2)n[nH]1` [Compound 323] the value was 8.00.
To `COC1CCc2nc(-c3nc(N(C)c4c(F)cc(S(C)(=O)=O)cc4F)nc(Nc4cc(C)[nH]n4)c3C3CC3)cn2C1` (centres unmarked) [Compound 324] belongs 8.52.
For the compound `Cc1cc(Nc2nc(N(C)c3c(F)cc(S(C)(=O)=O)cc3F)nc(Nc3ccn(C)n3)c2C2CC2)n[nH]1` [Compound 325], the pIC50 is 7.28.
To `Cc1cc(Nc2nc(N(C)c3c(F)cc(S(C)(=O)=O)cc3F)nc(-c3cnn4cccnc34)c2C2CC2)n[nH]1` [Compound 326] belongs 8.05; to `Cc1cc(Nc2nc(N(C)c3c(F)cc(S(C)(=O)=O)cc3F)nc(Nc3cnccn3)c2C2CC2)n[nH]1` [Compound 328], 7.29.
For `Cc1cc(Nc2nc(N(C)c3c(F)cc(S(C)(=O)=O)cc3F)nc(-c3cn(C)nc3CC#N)c2C2CC2)n[nH]1` [Compound 329] the value was 8.40.

As a reminder, the pIC50 is −log10 of the IC50, conventionally taken in molar units.
